Measured values: the supplement of paper PMC10307832

How the values were obtained:
Experiment in all cases: relative viability (nuclei count vs DMSO), 5 days (fraction); higher = more cells survive
[1] = compound: CCCS(=O)(=O)Nc1ccc(F)c(C(=O)c2c[nH]c3ncc(-c4ccc(Cl)cc4)cc23)c1F [Vemurafenib] + CC(=O)c1c(C)c2cnc(Nc3ccc(N4CCNCC4)cn3)nc2n(C2CCCC2)c1=O [Palbociclib] (partner 0.5 µM)
How it was run: (§1)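 Relative viability is defined as nuclei in treated wells over nuclei in vehicle wells. Duplicate plates were run and medians reported. Lung cancer cell lines in 1536-well plates were dosed by pin tool one day after seeding, with one drug or with a fixed anchor-drug dose plus five library-drug doses (not always all listed) in √10 steps, and nuclei were counted after 5 days.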

[2] = compound: Cc1nc(NC(=O)N2CCC[C@H]2C(N)=O)sc1-c1ccnc(C(C)(C)C(F)(F)F)c1 [Alpelisib] + CS(=O)(=O)N1CCN(Cc2cc3nc(-c4cccc5[nH]ncc45)nc(N4CCOCC4)c3s2)CC1 [Pictilisib] (partner 1 µM)
How it was run: as §1

[3] = compound: Cc1nc(NC(=O)N2CCC[C@H]2C(N)=O)sc1-c1ccnc(C(C)(C)C(F)(F)F)c1 [Alpelisib] + C[C@]1(O)C[C@@H](c2nc(-c3ccc4ccc(-c5ccccc5)nc4c3)c3c(N)nccn32)C1 [Linsitinib] (partner 1 µM)
How it was run: as §1

[4] = compound: Cc1nc(NC(=O)N2CCC[C@H]2C(N)=O)sc1-c1ccnc(C(C)(C)C(F)(F)F)c1 [Alpelisib] + Cc1nc(Nc2ncc(C(=O)Nc3c(C)cccc3Cl)s2)cc(N2CCN(CCO)CC2)n1 [Dasatinib] (partner 0.075 µM)
How it was run: as §1

Cell Line	relative viability ([1]; first compound 0.03162 µM)	relative viability ([1]; first compound 0.1 µM)	relative viability ([1]; first compound 0.3162 µM)	relative viability ([1]; first compound 1 µM)	relative viability ([2]; first compound 0.04 µM)	relative viability ([2]; first compound 0.1265 µM)	relative viability ([2]; first compound 0.4 µM)	relative viability ([2]; first compound 1.265 µM)	relative viability ([2]; first compound 4 µM)	relative viability ([3]; first compound 0.04 µM)	relative viability ([3]; first compound 0.1265 µM)	relative viability ([3]; first compound 0.4 µM)	relative viability ([3]; first compound 1.265 µM)	relative viability ([3]; first compound 4 µM)	relative viability ([4]; first compound 0.04 µM)	relative viability ([4]; first compound 0.1265 µM)	relative viability ([4]; first compound 0.4 µM)	relative viability ([4]; first compound 1.265 µM)	relative viability ([4]; first compound 4 µM)
NCI-H23	0.495	0.479	0.498	0.536	0.605	0.493	0.528	0.419	0.464	0.527	0.576	0.672	0.524	0.513	0.818	0.65	0.702	0.535	0.418
NCI-H322M	0.444		0.557	0.475	0.491	0.553	0.544	0.473	0.478	0.914	0.953	0.868	0.836	0.75	0.225	0.223	0.257	0.253	0.273
NCI-H358	0.113	0.139	0.175	0.132	0.382	0.316	0.379	0.268	0.205	0.683	0.657	0.605	0.334	0.397	0.157	0.176	0.164	0.112	0.121
NCI-H441	0.23	0.185	0.241	0.237	0.438	0.448	0.547	0.382	0.41	0.734	0.403	0.698	0.524	0.492	0.525	0.72	0.562	0.311	0.358
NCI-H460	0.146	0.152	0.108	0.203	0.388	0.389	0.378	0.345	0.297	0.716	0.722	0.516	0.261	0.284	0.42	0.484	0.457	0.245	0.174
NCI-H520	0.222	0.188	0.221	0.222	0.244	0.316	0.318	0.304	0.289	1.01	1.04	1.01	1.02	0.723	0.184	0.218	0.153	0.174	0.149
NCI-H647	0.375	0.434	0.404	0.394	0.446	0.385	0.402	0.294	0.378	1.01	1.29	1.13	1.12	1.12	0.228	0.163	0.214	0.0992	0.123
NCI-H650	0.359	0.288	0.241	0.287	0.756	0.804	1.09	0.746	0.808	0.819	0.706	0.894	0.587	0.807	0.417	0.38	0.449	0.395	0.288
NCI-H661	0.406	0.357	0.454	0.403	0.374	0.367	0.475	0.506	0.346	0.58	0.573	0.613	0.439	0.458	0.845	0.745	0.8	0.569	0.526
NCI-H727	0.699	0.631	0.811	0.661	0.302	0.462	0.404	0.325	0.373	0.292	0.306	0.388	0.27	0.177	0.424	0.326	0.476	0.313	0.272
NCI-H838	0.213	0.236	0.177	0.343	0.439	0.471	0.427	0.47	0.434	0.969	1.02	0.983	0.807	0.956	0.275	0.375	0.296	0.228	0.215
NCI-H1355	0.384	0.325	0.436	0.45	0.444	0.568	0.436	0.521	0.425	0.762	0.837	0.828	0.774	0.722	0.708	0.551	0.699	0.434	0.443
NCI-H1395	0.553	0.613	0.523	0.611	0.493	0.673	0.663	0.615	0.492	1.12	1.17	1.42	0.82	1.18	0.461	0.376	0.457	0.356	0.394
NCI-H1437	0.311	0.307	0.311	0.346	0.416	0.482	0.441	0.37	0.335	1.06	1.02	1.05	0.827	0.844	0.368	0.338	0.358	0.309	0.342
NCI-H1651	0.511	0.463	0.488	0.53	0.606	0.596	0.638	0.547	0.644	0.953	0.932	0.963	0.932	0.956	0.357	0.463	0.445	0.412	0.293
NCI-H1666	0.579	0.699	0.665	0.641	0.508	0.459	0.536	0.479	0.344	0.805	0.705	0.772	1.01	0.793	0.851	0.764	0.792	0.698	0.666
